Assay results reported in paper PMC8692993, “PPARα and PPARγ activation is associated with pleural mesothelioma invasion but therapeutic inhibition is ineffective” (iScience, 2021).

What was measured:
[1] = system: renal cell carcinoma; set-up: method as in Abu Aboud et al., 2015; details: 25 μM; ref Abu Aboud et al., 2015; cited from earlier work
[2] = target: T1, PPARα (Homo sapiens, UniProt Q07869); assay: HG5LN reporter cell assay, PPARα-mediated transcription; format: cell-based; set-up: expressed in transfected cells; host or cells: HG5LN (HeLa-derived, GAL4RE-luciferase)
T1 sequence (Q07869 239-466 limits assumed): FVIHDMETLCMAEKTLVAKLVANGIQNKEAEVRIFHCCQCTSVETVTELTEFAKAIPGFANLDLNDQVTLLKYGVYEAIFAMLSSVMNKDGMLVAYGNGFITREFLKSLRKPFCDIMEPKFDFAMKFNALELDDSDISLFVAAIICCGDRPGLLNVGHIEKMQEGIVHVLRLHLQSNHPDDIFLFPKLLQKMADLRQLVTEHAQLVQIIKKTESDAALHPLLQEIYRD
Description: Nuclear receptors, including PPARα and γ, are ligand-inducible transcription factors that form heterodimers with retinoid X receptors and bind to specific DNA sites located in the enhancer/promoter region of target genes, releasing co-repressors and/or recruiting co-activators ([Wang, 2010]). We therefore assessed the functional consequences of the ligands on PPARα and γ-mediated transcriptional activation in reporter cell lines. These cell lines were generated as previously reported by a two-step transfection procedure ([Seimandi et al., 2005]). First, a stable cell line, HG5LN, expressing the reporter gene (GAL4RE-luciferase) was developed from the HeLa cell line. These cells were then transfected with a plasmid expressing the C-terminal ligand-binding domain of PPARα or γ fused to GAL4 DNA-binding domain. The parental HG5LN cells were used as a control to test non-specific modulation of luciferase expression by the small molecules investigated (Figure S4A). The HG5LN PPAR reporter cells therefore allow comparison of the functional activity at, and selectivity of different ligands for, PPARα and γ. […] As expected ([Abu Aboud et al., 2015]), GW6471 potently antagonized PPARα (Figure 4E and Table 1).
A transfected […] cell line HG5LN was used ([Balaguer et al., 2001]). These cells were cultured in Dubecco's modified Eagle's medium (DMEM-F12 Thermo Fisher Scientific) with phenol red and supplemented with 5% foetal calf serum, incubated at 37°C in a 5% CO2/95% air-humidified atmosphere. Luciferase assays were performed in DMEM-F12 (Thermo Fisher Scientific) without phenol red and supplemented with 5% dextran-coated charcoal-stripped FCS (test culture medium), puromycin (Thermo Fisher Scientific) 0.5 μg/mL and geneticin (Thermo Fisher Scientific) 1 mg/mL. Cells were seeded at a density of 5 x 10^4 cells/well and incubated for 8 h at 37°C in a 96-well plate white opaque tissue culture plates (Becton-Dickinson). Tested compounds were added in serial dilutions and incubated for 16 h at 37°C. After incubation, the medium containing the effectors was carefully removed and replaced by culture medium containing 3 x 10^−4 mol/L luciferin (Sigma Chemicals). After 5 min incubation at room temperature, the 96-well plate was then read with a Microbeta Wallac luminometer and the luminescence was measured in the living cells for 2 s. All experiments were performed in quadruplicate.

[3] = Protein binding by rapid equilibrium dialysis, reporter assay media; format: in vitro ADME; details: DMEM/F-12 with 5% dextran-coated charcoal-stripped FCS, mean ± SD, n=3
Experimental: Protein binding was determined via rapid equilibrium dialysis (RED) with incorporation of a pre-saturation step ([Charman et al., 2020]). The pre-incubation process involved RED system being exposed to fresh aqueous solutions of GW6471 (400 nM) for three periods (including one overnight). For the protein binding determination, GW6471 was spiked into the diluted mouse plasma (10% (v/v); in PBS) or DMEM/F-12 media containing 5% dextran-coated charcoal-stripped FCS (at 2000 nM) and dialysed against protein-free PBS (for plasma) or base media (DMEM/F-12) containing GW6471 at 40 nM for 24 h at 37°C under ambient atmosphere on a plate shaker. Concentrations of GW6471 in dialysate and donor samples collected at the end of the dialysis period were determined via LC–MS.
Compound binding was assessed on the basis of the measured concentrations in dialysate and donor samples at the end of the dialysis period.
Based on the post-dialysis measured concentrations in donor (Ctotal_post_dialysis) and dialysate (Cunbound) for each RED unit, the unbound fraction of compound in assay matrix (fu_diluted) was calculated according to Equation 1 below:(Equation 1) fu=Cunbound/Ctotal_post−dialysis
For media, the value for fu calculated according to Equation 1 above was used without further correction. […]

[4] = system: angiopoietin-like 4 (Angptl4); assay: Angptl4 immunohistochemistry of treated tumors; format: in vivo, BALB/c mice; details: GW6471- versus vehicle-treated tumors
Experimental: Tissues were fixed with 4% paraformaldehyde for 48–72 h and embedded in paraffin. 5 μm sections were cut by microtome (Thermo Fisher Scientific) and placed on Slide SuperFrost Plus White 1 mm (Thermo Fisher Scientific). Slides were deparaffinised as previously explained for hematoxylin and eosin staining. Antigen retrieval was performed with 10 mM citrate, pH6, at high pressure in a pressure cooker for 15 min and 5 min slow release. Sections were rinsed twice with TBST buffer (Tris-Buffer Saline with Tween, 20 mM Tris, 500 mM NaCl, and 0.05% Tween 20) for 5 min under agitation. Quench tissue peroxidase H2O2 was performed for 10 min at room temperature with 3% H2O2 in distilled H2O. The Vectastain® ABC kit, peroxidase (Rabbit IgG) (Vector Laboratories) was used for the following steps. Non-specific binding was performed with 1.5% Normal goat serum in PBS for 20 min at room temperature. Primary antibody Angptl4 (1:50) (409800, Invitrogen), was diluted in PBS/1.5% goat serum and incubated 1 h at room temperature. The secondary biotinylated anti-Rabbit IgG (1:200) (Vector Laboratories), was diluted in PBS and incubated for 30 min at room temperature. Vectastain ABC reagent (Vector Laboratories) was used as per manufacturer's instructions, mixing Reagent A with Reagent B (1:1) and incubating at room temperature 30 min prior use. […]

Compound: CCC(=O)NC[C@H](Cc1ccc(OCCc2nc(-c3ccccc3)oc2C)cc1)N/C(C)=C\C(=O)c1ccc(C(F)(F)F)cc1 [GW6471]
- Cell-cycle arrest and apoptosis [1]: significant cell-cycle arrest and apoptosis
- Functionality, Type [2]: antagonist
- IC50 ([2]; inhibition of agonism by 10 nM GW7647, 16 h incubation, mean of 3 experiments ± SEM): 254 ± 96 nM
- Fraction unbound (fu) [3]: 0.0037 ± 0.0006
- Angptl4 staining in tumors [4]: decreased staining of Angptl4
